Results: US6649628B1, “N-[2-hydroxy-3-(1-piperidinyl)propoxy]pyridine-1-oxide-3-carboximidoyl chloride and its use in the treatment of insulin resistance” (Biorex Kutato es Fejleszto RT, priority 1999, dated 2003)
Like-named read-outs stand apart in the source and are kept apart here.

Tests used:
[1] = system: high fat (HF) diet insulin resistant male Wistar rats; test: Experiment 8: in vivo insulin-dependent glucose uptake (euglycaemic glucose clamp) in dietary induced insulin resistance; conditions: for effect on fasting blood glucose levels: 20 mg/kg daily, 3 weeks; for in vivo insulin mediated glucose uptake (glucose infusion rate, GIR): 20 mg/kg/day for 3 weeks, euglycaemic glucose clamp, insulin infusion 6.4 mU/kg/min
Protocol: Male Wistar rats (Charles River Laboratories Inc.) with an initial body weight of 300-350 g were used in the experiments.
Insulin resistance was induced by dietary manipulation: animals were given a high fat (HF) diet for 3 weeks. In the HF diet the proportion of saturated fats were dominant and gave 70% of total daily caloric intake.
Briefly: the fasting blood glucose concentration in different animal groups must be identical. Experiments were carried out in conscious, freely moving, chronicly canulated rats: first an insulin infusion (6.4 mU/kg/min) was started, followed by a parallel-run continuous glucose infusion to maintain blood glucose concentrations in the euglycaemic range. After stabilisation the quantity of infused glucose was measured for a 90 min. period (glucose infusion rate=GIR, mg/kg/min) which is the quantitative parameter of insulin sensitivity.

STZ-diabetic Wistar rats [2] = test: Experiment 5: urinary protein loss caused by diabetic nephropathy after 1-month treatment; assay type: in vivo, rat
Protocol: For the 24-hour period of urine collection, the animals were placed in individual metabolic cages. During this period they were given water ad libitum but no food. The latter measure was necessary to prevent possible contamination by the protein content of the food. Urine was collected in calibrated glass containers, in which Thymol crystal (Reanal 3135-1-08-38) was placed to prevent bacterial contamination.
Before measurement, the urine samples were centrifuged (2500 rpm) and filtered through a paper filter (Whatmann 1). If necessary, they were stored at −20° C. until measurement.
The total protein content of the urine was determined by the Bradford staining method (Sigma B-6916, St. Louis, Mo.), and color intensity was detected by spectrophotometry (Hitachi-U-3200).

[3] = system: Zucker Diabetic Fatty (ZDF) rats; conditions: for Fed serum glucose concentrations: 2 × 20 mg/kg/day
Protocol: A genetically diabetic animal model was selected and the Zucker Diabetic Fatty (ZDF) rats were used in the experiments. This model is the diabetic variant of the insulin resistant, obese but non-diabetic Zucker fa/fa animal model (see Experiment 1). In the ZDF rats diabetes developed at the age of 6-8 weeks preceded by an insulin resistant phase.
The effect of (A+) enantiomer was investigated in a treatment with a dose of 2×20 mg/kg/day started in the non-diabetic phase, at the age of 7 weeks and continued for 6 weeks.
Clinical chemistry parameters were measured by standard methods. The serum insulin concentrations were measured by a recently developed method (ELISA method, DRG lnternational,Inc., U.S.A.).

STZ-diabetic Wistar rats [4] = test: Experiment 6: Compound-A and enantiomers, nerve conduction velocity after 1 month treatment; conditions: for MNCV / MNCV improvement / SNCV / SNCV improvement: 5 mg/kg daily, 1 month; for effect on motor (MNCV) and sensory (SNCV) nerve conduction velocity deficits: Compound-A 10 mg/kg, enantiomers 5 mg/kg daily
Protocol: In the experiments, male Wistar rats were used (Charles River Laboratories Inc.). At the start of the experiment, their weights were 340-370 g. Diabetes was induced by the intravenous administration of a single 45 mg/kg dose of streptozotocine (STZ, Sigma, St. Louis, Mo.) dissolved in physiological saline solution. The development of diabetes was checked after 1 day by a blood glucose test, accepting a value over 15 mmol/l.
The test and reference substances were administered p.os to the animals once a day.
For the determination of nerve conduction velocity (NCV), the method of Stanley, modified by De Konig and Gispen was used. The animals were anesthetized by the simultaneous administration of Hyponorm (1 mg/kg ip., Janssen, Tilburg, Denmark), fluanisone (10 mg/ml), and phentanyl citrate (0.2 mg/ml). Afterwards, the left ischiadicus and tibial nerves were stimulated at standard points. Supramaximal stimulus (square impulse, 0.03 ms) was used with a platinum needle electrode, through a Nihon-Kohden (model SEN-1104, Japan) stimulator. The electromyogram (EMG) transferred from the sole muscles and intensified by a myograph (Elema-Schonander, Stockholm, Sweden) was analyzed further by the Matlab for Windows (Mathwork Inc, UK) program. The extent of NCV damage caused by diabetes was expressed in m/s. The effectiveness of the treatment was compared to this in terms of percentage (%). The statistical calculations were done by unpaired t-test or single-criterion ANOVA test (along with the Newman-Keuls post hoc test).

STZ-diabetic Wistar rats [5] = system: STZ-diabetic Wistar rats
Text: The experiments were accomplished on Wistar rats with a body weight of 320-350 g. Diabetes was induced and checked as described in Experiment 2. In the test animals having been diabetic for 3 weeks the left nervus ischidiacus was injured by freezing and the right side one was used as non-injured control. The regeneration was observed by monitoring the signals of the flexor reflex provoked by irritation of the sole that is areas under curve (AUC) of the electromyogram transferred from the forward tibial muscle. For the stimulation and detection the system described in Experiment 2 was used. Single daily doses of 10 mg/kg of Compound-A and 5 mg/kg of A(+) enantiomer were administred for 5 weeks after the injury by freezing.

STZ-diabetic rats = conditions: 2 month; for Scores lenticular + retinal improvement % / Scores lenticular + retinal mean ± SE / Scores retinal improvement % / Scores retinal mean ± SE: 5 mg/kg daily; for effect on lenticular and retinal pathologic histological alterations / effect on retinal histological alterations only: Compound-A 10 mg/kg, enantiomers 5 mg/kg daily
Protocol: After anesthesia (Calypsovet, 125 mg/kg. Ip., Richter Rt., Hungary), the eyes were enucleated and fixed in 4% formaldehyde dissolved in a phosphate buffer (pH:7.4).
Afterwards, they were embedded in paraffin (Medim DDM P800, embedding center: Lignifer L-120-92-014, stainer: Shandon Eliott, Microtome: is Leica SM 2000 R, Microscope: Jenaval Karl Zeiss Jena). Several 6 micron sections of the eyes were prepared, and hematoxilyn/eosine (Fluka) and PAS (periodic acid-Schiff, Fluka) staining were used. The light-microscopic evaluation was performed at a magnification of 40× and 100×. Photographs and slide positives were prepared of representative samples.
The histological evaluation was performed on coded samples, the group division was unknown for the examiner. Pathological deviations of the retina were graded on a scale of 0-20, while those of the lens on a scale of 0-3.
The statistical calculations were done with the Statistica 4.5 (SatSoft, USA) program. The given value for negative cases was 0.1. A Box and Whisker plot graph was also prepared.
For each group in the experiment, the mean±SE (Standard Error) values were calculated, and the comparison was done with the help of a non-parametric Mann-Whitney U-test (Graphpad Instat, San Diego, Calif.).

SMILES	effect on fasting blood glucose levels [1]	in vivo insulin mediated glucose uptake (glucose infusion rate, GIR) [1] [mg/kg/min]	MNCV (STZ-diabetic Wistar rats [4]) [m/s]	MNCV improvement (STZ-diabetic Wistar rats [4]) [%]	SNCV (STZ-diabetic Wistar rats [4]) [m/s]	SNCV improvement (STZ-diabetic Wistar rats [4]) [%]	effect on motor (MNCV) and sensory (SNCV) nerve conduction velocity deficits (STZ-diabetic Wistar rats [4])	Scores lenticular + retinal improvement % (STZ-diabetic rats) [%]	Scores lenticular + retinal mean ± SE (STZ-diabetic rats)	Scores retinal improvement % (STZ-diabetic rats) [%]	Scores retinal mean ± SE (STZ-diabetic rats)	effect on lenticular and retinal pathologic histological alterations (STZ-diabetic rats)	effect on retinal histological alterations only (STZ-diabetic rats)	further results
O=C(O)/C=C\C(=O)O.[O-][n+]1cccc(C(Cl)=NOC[C@H](O)CN2CCCCC2)c1 [A(+), (+)-/R/-N-[2-hydroxy-3-(1-piperidinyl)-propoxy]-pyridine-1-oxide-3-carboximidoyl chloride (Z)-2-butenedioate (1:1)]	did not affect	20.5 ± 0.89	56.1 ± 0.5	71.3	59.7 ± 0.5	68.5	significantly improved	42.9	4.05 ± 0.80	68.9	1.68 ± 0.63	significantly improved	effective	24-hour Urinary Protein Loss Mean ± SE (STZ-diabetic Wistar rats [2]; 5 mg/kg daily, 1 month, series 2): 5.61 ± 1.08 mg/24 h; effect on STZ-diabetes-induced urinary protein loss (STZ-diabetic Wistar rats [2]; Bimoclomol 20 mg/kg, Compound-A 10 mg/kg, (+) enantiomer 5 mg/kg daily): significantly reduced; antidiabetic activity in diabetic animals ([3]; 2×20 mg/kg/day): strong antidiabetic activity; normalization of blood glucose concentrations ([3]; 2×20 mg/kg/day): did not normalize; Fed serum glucose concentrations ([3]; 3 weeks): 10.82 ± 1.36 mmol/L; Fed serum glucose concentrations ([3]; 5 weeks): 13.25 ± 0.76 mmol/L; neuroregeneration of the non-freezed nerves (STZ-diabetic Wistar rats [5]; 5 mg/kg daily for 5 weeks): 83%; neuroregenerative effect (STZ-diabetic Wistar rats [5]; 5 mg/kg daily for 5 weeks): strong neuroregenerative effect; extent of neuroregeneration of the nerve injured by freezing (STZ-diabetic Wistar rats [5]; 5 mg/kg daily for 5 weeks after injury, 5. week, untreated 63%): 93%
O=C(O)/C=C\C(=O)O.[O-][n+]1cccc(C(Cl)=NOC[C@@H](O)CN2CCCCC2)c1 [A(−), (−)-/S/-N-[2-hydroxy-3-(1-piperidinyl)-propoxy]-pyridine-1-oxide-3-carboximidoyl chloride (Z)-2-butenedioate (1:1)]	did not affect	19.7 ± 1.38	53.1 ± 0.7	39.4	54.1 ± 0.9	34.9	did not have significant improving effect	10.3	6.02 ± 1.09	21.7	3.53 ± 1.07	not effective	not significant	
